Measured values: the NIST ThermoML archive (doi:10.1016/j.tca.2012.07.004)
Numbers after ± are expanded uncertainties.

Assay: xn = mol fraction of the nth substance listed
Details: 101 kPa, Liquid; for mass density: Vibrating tube method; for viscosity: Vibrating wire viscometry; for speed of sound: ultrasonic interferometer

CC(=O)[O-].C[NH+](C)C [trimethylammonium acetate] + CN1CCCC1=O
Details	mass density [kg/m3]	speed of sound [m/s]	viscosity [mPa·s]
298.15 K, x1 = 0.0182	1028.63 ± 0.35	1571 ± 20	2.04 ± 0.12
298.15 K, x1 = 0.0369	1030.53 ± 0.34	1575 ± 20	2.28 ± 0.14
298.15 K, x1 = 0.0987	1036.87 ± 0.35	1578 ± 20	3.04 ± 0.18
298.15 K, x1 = 0.1401	1039.96 ± 0.34	1581 ± 20	3.42 ± 0.21
298.15 K, x1 = 0.2032	1043.65 ± 0.35	1586 ± 20	3.89 ± 0.23
298.15 K, x1 = 0.3166	1047.89 ± 0.35	1584 ± 20	4.5 ± 0.27
298.15 K, x1 = 0.3637	1048.9 ± 0.35	1582 ± 20	4.56 ± 0.28
298.15 K, x1 = 0.4353	1049.74 ± 0.35	1580 ± 20	4.61 ± 0.28
298.15 K, x1 = 0.5625	1049.92 ± 0.35	1571 ± 20	4.52 ± 0.27
298.15 K, x1 = 0.6999	1049.74 ± 0.35	1559 ± 20	4.23 ± 0.26
298.15 K, x1 = 0.8435	1050.4 ± 0.35	1550 ± 20	3.7 ± 0.22
298.15 K, x1 = 0.936	1051.83 ± 0.35	1544 ± 20	3.27 ± 0.2
298.15 K, x1 = 0.9675	1052.54 ± 0.35	1543 ± 20	3.02 ± 0.18
298.15 K, x1 = 1	1053.85 ± 0.35	1544 ± 20	2.76 ± 0.17
303.15 K, x1 = 0.0182	1026.1 ± 0.34	1556 ± 20	1.64 ± 0.1
303.15 K, x1 = 0.0369	1027.79 ± 0.34	1560 ± 20	1.86 ± 0.11
303.15 K, x1 = 0.0987	1033.52 ± 0.34	1565 ± 20	2.56 ± 0.16
303.15 K, x1 = 0.1401	1036.31 ± 0.34	1568 ± 20	3 ± 0.18
303.15 K, x1 = 0.2032	1039.76 ± 0.34	1572 ± 20	3.48 ± 0.21
303.15 K, x1 = 0.3166	1043.59 ± 0.35	1569 ± 20	4.05 ± 0.24
303.15 K, x1 = 0.3637	1044.52 ± 0.35	1566 ± 20	4.11 ± 0.25
303.15 K, x1 = 0.4353	1045.32 ± 0.35	1564 ± 20	4.16 ± 0.25
303.15 K, x1 = 0.5625	1045.54 ± 0.35	1551 ± 20	4.01 ± 0.24
303.15 K, x1 = 0.6999	1045.69 ± 0.35	1537 ± 20	3.64 ± 0.22
303.15 K, x1 = 0.8435	1046.54 ± 0.35	1524 ± 20	3.14 ± 0.19
303.15 K, x1 = 0.936	1048.22 ± 0.35	1517 ± 20	2.78 ± 0.17
303.15 K, x1 = 0.9675	1048.93 ± 0.35	1515 ± 20	2.52 ± 0.15
303.15 K, x1 = 1	1049.87 ± 0.35	1514 ± 20	2.37 ± 0.14
308.15 K, x1 = 0.0182	1021.24 ± 0.34	1534 ± 20	1.43 ± 0.09
308.15 K, x1 = 0.0369	1023.08 ± 0.34	1540 ± 20	1.57 ± 0.1
308.15 K, x1 = 0.0987	1028.14 ± 0.34	1546 ± 20	2.23 ± 0.14
308.15 K, x1 = 0.1401	1030.79 ± 0.34	1550 ± 20	2.64 ± 0.16
308.15 K, x1 = 0.2032	1034.23 ± 0.34	1555 ± 20	3.14 ± 0.19
308.15 K, x1 = 0.3166	1037.97 ± 0.34	1554 ± 20	3.7 ± 0.22
308.15 K, x1 = 0.3637	1039.05 ± 0.34	1553 ± 20	3.76 ± 0.23
308.15 K, x1 = 0.4353	1039.98 ± 0.34	1551 ± 20	3.77 ± 0.23
308.15 K, x1 = 0.5625	1040.55 ± 0.34	1540 ± 20	3.52 ± 0.21
308.15 K, x1 = 0.6999	1040.85 ± 0.34	1530 ± 20	3.12 ± 0.19
308.15 K, x1 = 0.8435	1042 ± 0.34	1519 ± 20	2.64 ± 0.16
308.15 K, x1 = 0.936	1043.81 ± 0.34	1512 ± 20	2.34 ± 0.14
308.15 K, x1 = 0.9675	1044.69 ± 0.35	1511 ± 20	2.16 ± 0.13
308.15 K, x1 = 1	1045.81 ± 0.35	1508 ± 20	2.06 ± 0.12
313.15 K, x1 = 0.0182	1016.53 ± 0.33	1528 ± 20	1.52 ± 0.09
313.15 K, x1 = 0.0369	1017.98 ± 0.33	1533 ± 20	1.38 ± 0.08
313.15 K, x1 = 0.0987	1023.07 ± 0.33	1538 ± 20	1.96 ± 0.12
313.15 K, x1 = 0.1401	1025.67 ± 0.33	1542 ± 20	2.39 ± 0.14
313.15 K, x1 = 0.2032	1029.09 ± 0.33	1546 ± 20	2.81 ± 0.17
313.15 K, x1 = 0.3166	1032.81 ± 0.34	1544 ± 20	3.37 ± 0.2
313.15 K, x1 = 0.3637	1033.73 ± 0.34	1543 ± 20	3.41 ± 0.21
313.15 K, x1 = 0.4353	1034.71 ± 0.34	1540 ± 20	3.42 ± 0.21
313.15 K, x1 = 0.5625	1035.21 ± 0.34	1528 ± 20	3.16 ± 0.19
313.15 K, x1 = 0.6999	1035.7 ± 0.34	1517 ± 20	2.74 ± 0.17
313.15 K, x1 = 0.8435	1037.36 ± 0.34	1508 ± 20	2.25 ± 0.14
313.15 K, x1 = 0.936	1039.26 ± 0.34	1502 ± 20	2.04 ± 0.12
313.15 K, x1 = 0.9675	1040.35 ± 0.34	1496 ± 20	1.92 ± 0.12
313.15 K, x1 = 1	1041.7 ± 0.34	1490 ± 20	1.83 ± 0.11
